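Test compounds were applied to cells in 96-well plates for 48 hours at 5 doses. GI50: concentration for 50% inhibition of growth. TGI denotes the concentration required for complete inhibition of growth.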
Columns and labels:
Test in all cases: NCI-60 cell line screen, 48 h
OVCAR-5 ovarian = system: OVCAR-5 ovarian
SNB-75 CNS = system: SNB-75 CNS
NCI-H522 lung = system: NCI-H522 lung
SR leukemia = system: SR leukemia
PC-3 prostate = system: PC-3 prostate
SNB-19 CNS = system: SNB-19 CNS
EKVX NSCLC = system: EKVX NSCLC
SN12C renal = system: SN12C renal
CAKI-1 renal = system: CAKI-1 renal
CCRF-CEM leukemia = system: CCRF-CEM leukemia

O=c1[nH]c(Nc2cccc(CO)c2)nc2nc[nH]c12
TGI (OVCAR-5 ovarian): > 100 µM | TGI (SNB-75 CNS): > 100 µM | TGI (NCI-H522 lung): > 100 µM | TGI (SR leukemia): > 100 µM | TGI (PC-3 prostate): > 100 µM | TGI (SNB-19 CNS): > 100 µM | TGI (EKVX NSCLC): > 100 µM | TGI (SN12C renal): > 100 µM | TGI (CAKI-1 renal): > 100 µM | TGI (CCRF-CEM leukemia): > 100 µM

CN(C)CC1CCC(CN(C)C)C1=O (stereo unspecified)
TGI (OVCAR-5 ovarian): 20.3 µM | TGI (SNB-75 CNS): 37.2 µM | TGI (NCI-H522 lung): 0.359 µM | TGI (SR leukemia): > 100 µM | TGI (PC-3 prostate): 4.58 µM | TGI (SNB-19 CNS): > 100 µM | TGI (EKVX NSCLC): 11 µM | TGI (SN12C renal): 13.4 µM | TGI (CAKI-1 renal): 1.95 µM | GI50 (CCRF-CEM leukemia): 0.319 µM | TGI (CCRF-CEM leukemia): > 100 µM

C[n+]1c(-c2ccc(/C=C/C=N\NC(=O)c3ccc(C(=O)N/N=C\C=C\c4ccc(-c5cn6ccccc6[n+]5C)cc4)cc3)cc2)cn2ccccc21
TGI (OVCAR-5 ovarian): > 100 µM | TGI (SNB-75 CNS): > 100 µM | TGI (NCI-H522 lung): > 100 µM | TGI (SR leukemia): 42.3 µM | TGI (PC-3 prostate): > 100 µM | TGI (SNB-19 CNS): > 100 µM | TGI (EKVX NSCLC): > 100 µM | TGI (SN12C renal): > 100 µM | TGI (CAKI-1 renal): > 60.4 µM | TGI (CCRF-CEM leukemia): > 58.2 µM

CC(C)(C)c1cc(C(=O)/C=C/c2ccc3c(c2)OCO3)cc(C(C)(C)C)c1O
TGI (OVCAR-5 ovarian): > 76.9 µM | TGI (SNB-75 CNS): 15.4 µM | TGI (NCI-H522 lung): 66 µM | TGI (SR leukemia): 10 µM | TGI (PC-3 prostate): 21.8 µM | TGI (SNB-19 CNS): > 70.2 µM | TGI (EKVX NSCLC): > 100 µM | TGI (SN12C renal): 76.4 µM | TGI (CAKI-1 renal): > 100 µM | TGI (CCRF-CEM leukemia): 16.3 µM

CCOC(=O)c1cn2c(n1)sc1cc(Cl)cc(Cl)c12
TGI (OVCAR-5 ovarian): > 100 µM | TGI (SNB-75 CNS): > 100 µM | TGI (NCI-H522 lung): > 100 µM | TGI (SR leukemia): > 100 µM | TGI (PC-3 prostate): > 100 µM | TGI (SNB-19 CNS): > 100 µM | TGI (EKVX NSCLC): > 100 µM | TGI (SN12C renal): > 100 µM | TGI (CAKI-1 renal): > 100 µM | TGI (CCRF-CEM leukemia): > 100 µM

C=C1c2nc3ccccc3n2C=C(c2ccc(Cl)cc2)N1c1ccc(OC)cc1
TGI (OVCAR-5 ovarian): 35 µM | TGI (SNB-75 CNS): 7.13 µM | TGI (NCI-H522 lung): 18.5 µM | TGI (SR leukemia): > 100 µM | TGI (PC-3 prostate): 45.5 µM | TGI (SNB-19 CNS): 12.7 µM | TGI (EKVX NSCLC): 25.9 µM | TGI (SN12C renal): 60 µM | TGI (CAKI-1 renal): 19.1 µM | TGI (CCRF-CEM leukemia): > 100 µM

N#Cc1c(-c2ccccc2)cc(-c2ccc(Cl)cc2)[nH]c1=S
TGI (OVCAR-5 ovarian): > 100 µM | TGI (SNB-75 CNS): > 100 µM | TGI (NCI-H522 lung): 70.5 µM | TGI (SR leukemia): > 100 µM | TGI (PC-3 prostate): > 100 µM | TGI (SNB-19 CNS): > 100 µM | TGI (EKVX NSCLC): 70.4 µM | TGI (SN12C renal): > 100 µM | TGI (CAKI-1 renal): > 100 µM | TGI (CCRF-CEM leukemia): 86 µM

COc1cc(/C=C/C=C2\CC/C(=C\C=C\c3ccc(O)c(OC)c3)C2=O)ccc1O
TGI (OVCAR-5 ovarian): > 100 µM | TGI (SNB-75 CNS): > 100 µM | TGI (NCI-H522 lung): 25.9 µM | TGI (SR leukemia): 17.9 µM | TGI (PC-3 prostate): > 100 µM | TGI (SNB-19 CNS): > 100 µM | TGI (EKVX NSCLC): > 100 µM | TGI (SN12C renal): > 100 µM | TGI (CAKI-1 renal): > 100 µM | TGI (CCRF-CEM leukemia): 8.26 µM

O=c1[nH]c(=O)n(C2CC(O)C(CO)O2)cc1OCc1ccccc1 (stereo unspecified)
TGI (OVCAR-5 ovarian): > 100 µM | TGI (SNB-75 CNS): > 100 µM | TGI (NCI-H522 lung): > 100 µM | TGI (SR leukemia): > 100 µM | TGI (PC-3 prostate): > 100 µM | TGI (SNB-19 CNS): > 100 µM | TGI (EKVX NSCLC): > 100 µM | TGI (SN12C renal): > 100 µM | TGI (CAKI-1 renal): > 100 µM | TGI (CCRF-CEM leukemia): > 100 µM

COc1cc2c(cc1OC)-c1cc3ccccc3c(=O)n1CC2
TGI (OVCAR-5 ovarian): > 100 µM | TGI (SNB-75 CNS): 92 µM | TGI (NCI-H522 lung): 40 µM | TGI (SR leukemia): 96.8 µM | TGI (PC-3 prostate): 40.6 µM | TGI (SNB-19 CNS): > 100 µM | TGI (EKVX NSCLC): > 100 µM | TGI (SN12C renal): > 100 µM | TGI (CAKI-1 renal): 64.9 µM | TGI (CCRF-CEM leukemia): > 100 µM

COc1ccc(CN2C3CC2CN(c2ccc(-c4cc(OCC(C)(C)O)cn5ncc(C#N)c45)cn2)C3)cn1
GI50 (OVCAR-5 ovarian): > 100 µM | TGI (OVCAR-5 ovarian): > 100 µM | GI50 (SNB-75 CNS): 1.32 µM | TGI (SNB-75 CNS): 4.81 µM | GI50 (NCI-H522 lung): 17.5 µM | TGI (NCI-H522 lung): > 100 µM | GI50 (SR leukemia): 4.45 µM | TGI (SR leukemia): > 100 µM | GI50 (PC-3 prostate): 16.3 µM | TGI (PC-3 prostate): > 100 µM | GI50 (SNB-19 CNS): 20.7 µM | TGI (SNB-19 CNS): > 100 µM | GI50 (EKVX NSCLC): 6.9 µM | TGI (EKVX NSCLC): > 100 µM | GI50 (SN12C renal): 2.95 µM | TGI (SN12C renal): > 100 µM | GI50 (CAKI-1 renal): 4.78 µM | TGI (CAKI-1 renal): > 100 µM | GI50 (CCRF-CEM leukemia): 3.59 µM | TGI (CCRF-CEM leukemia): > 100 µM

CO[C@@H]1O[C@H](C(=O)c2ccccc2)[C@H]2OC(C)(C)O[C@@H]12
TGI (OVCAR-5 ovarian): > 100 µM | TGI (SNB-75 CNS): > 100 µM | TGI (NCI-H522 lung): > 100 µM | TGI (SR leukemia): > 100 µM | TGI (PC-3 prostate): > 100 µM | TGI (SNB-19 CNS): > 100 µM | TGI (EKVX NSCLC): > 100 µM | TGI (SN12C renal): > 100 µM | TGI (CAKI-1 renal): > 100 µM | TGI (CCRF-CEM leukemia): > 100 µM

CC(C)OC(=O)OCSc1ccccc1N=Cc1cccc([N+](=O)[O-])c1
TGI (OVCAR-5 ovarian): > 10 µM | TGI (SNB-75 CNS): > 10 µM | TGI (NCI-H522 lung): > 10 µM | TGI (SR leukemia): > 10 µM | TGI (PC-3 prostate): > 10 µM | TGI (SNB-19 CNS): > 10 µM | TGI (EKVX NSCLC): > 10 µM | TGI (SN12C renal): > 10 µM | TGI (CAKI-1 renal): > 10 µM | TGI (CCRF-CEM leukemia): > 10 µM

COc1ccc(-c2cc(-c3ccccc3)[nH]c(=S)c2C#N)cc1
TGI (OVCAR-5 ovarian): > 100 µM | TGI (SNB-75 CNS): 88.1 µM | TGI (NCI-H522 lung): > 100 µM | TGI (SR leukemia): > 100 µM | TGI (PC-3 prostate): > 100 µM | TGI (SNB-19 CNS): > 100 µM | TGI (EKVX NSCLC): > 100 µM | TGI (SN12C renal): > 100 µM | TGI (CAKI-1 renal): > 100 µM | TGI (CCRF-CEM leukemia): > 100 µM

S=c1cc(-c2ccc3c(c2)OCO3)s[nH]1
TGI (OVCAR-5 ovarian): > 100 µM | TGI (SNB-75 CNS): > 100 µM | TGI (NCI-H522 lung): 54.6 µM | TGI (SR leukemia): > 100 µM | TGI (PC-3 prostate): > 100 µM | TGI (SNB-19 CNS): > 100 µM | TGI (EKVX NSCLC): > 100 µM | TGI (SN12C renal): > 100 µM | TGI (CAKI-1 renal): > 100 µM | TGI (CCRF-CEM leukemia): > 100 µM

C[C@H]1SC(c2ccc(Cl)cc2Cl)N(NC(=O)c2ccncc2)C1=O (stereo partly specified)
TGI (OVCAR-5 ovarian): > 100 µM | TGI (SNB-75 CNS): > 100 µM | TGI (NCI-H522 lung): 60.5 µM | TGI (SR leukemia): > 100 µM | TGI (PC-3 prostate): 29.7 µM | TGI (SNB-19 CNS): > 100 µM | TGI (EKVX NSCLC): 98.8 µM | TGI (SN12C renal): > 100 µM | TGI (CAKI-1 renal): > 100 µM | TGI (CCRF-CEM leukemia): > 100 µM

Cc1cnc2c(c1)C(=O)C1=C(C2=O)C2OC(=O)CC2OC1(C)C (stereo unspecified)
TGI (OVCAR-5 ovarian): 0.951 µM | TGI (SNB-75 CNS): 4.1 µM | TGI (NCI-H522 lung): 0.148 µM | TGI (SR leukemia): 0.29 µM | TGI (PC-3 prostate): 0.812 µM | TGI (SNB-19 CNS): 2.61 µM | TGI (EKVX NSCLC): 0.826 µM | TGI (SN12C renal): 0.318 µM | TGI (CAKI-1 renal): 0.405 µM | TGI (CCRF-CEM leukemia): 0.151 µM

Source: PubChem BioAssay (NCI)
